From the NIST ThermoML archive (doi:10.1021/je9001416)
± gives the expanded uncertainty stated by the source.

How the values were obtained:
[1] = xn = mol fraction of the nth substance listed; conditions: 303.15 K, 101 kPa, Liquid
[2] = refractive index (Na D-line) (dimensionless); xn = mol fraction of the nth substance listed; conditions: 303.15 K, 101 kPa, Liquid, Standard Abbe refractometry
[3] = excess molar enthalpy (molar enthalpy of mixing); xn = mol fraction of the nth substance listed; conditions: 303.15 K, 101 kPa, Liquid, Flow calorimetry

CC(C)OC(C)C [diisopropyl ether] + CCO
Conditions | excess molar enthalpy [kcal/mol] | mass density [kg/m3] | refractive index
[1], x1 = 0.0495 | – | 776.55 ± 0.24 | –
[1], x1 = 0.0994 | – | 771.45 ± 0.24 | –
[1], x1 = 0.2002 | – | 762.41 ± 0.25 | –
[1], x1 = 0.2997 | – | 754.04 ± 0.26 | –
[1], x1 = 0.4003 | – | 746.63 ± 0.26 | –
[1], x1 = 0.5012 | – | 740.01 ± 0.27 | –
[1], x1 = 0.6012 | – | 734.1 ± 0.27 | –
[1], x1 = 0.7018 | – | 728.75 ± 0.28 | –
[1], x1 = 0.804 | – | 723.6 ± 0.28 | –
[1], x1 = 0.8996 | – | 718.96 ± 0.28 | –
[1], x1 = 0.9505 | – | 716.37 ± 0.29 | –
[1], x1 = 1 | – | 713.78 ± 0.29 | –
[2], x1 = 0.0495 | – | – | 1.35854 ± 0.00068
[2], x1 = 0.0994 | – | – | 1.35989 ± 0.00068
[2], x1 = 0.2002 | – | – | 1.36147 ± 0.00068
[2], x1 = 0.2997 | – | – | 1.36232 ± 0.00068
[2], x1 = 0.4003 | – | – | 1.36325 ± 0.00068
[2], x1 = 0.5012 | – | – | 1.36309 ± 0.00068
[2], x1 = 0.6012 | – | – | 1.36285 ± 0.00068
[2], x1 = 0.7018 | – | – | 1.36225 ± 0.00068
[2], x1 = 0.804 | – | – | 1.36246 ± 0.00068
[2], x1 = 0.8996 | – | – | 1.36213 ± 0.00068
[2], x1 = 0.9505 | – | – | 1.36303 ± 0.00068
[2], x1 = 1 | – | – | 1.36425 ± 0.00068
[3], x1 = 0.0212 | 0.0024 ± 0.000203 | – | –
[3], x1 = 0.0437 | 0.00524 ± 0.000232 | – | –
[3], x1 = 0.0676 | 0.00902 ± 0.000287 | – | –
[3], x1 = 0.0931 | 0.0136 ± 0.000382 | – | –
[3], x1 = 0.1204 | 0.0189 ± 0.000478 | – | –
[3], x1 = 0.1497 | 0.0251 ± 0.000621 | – | –
[3], x1 = 0.1811 | 0.0321 ± 0.000765 | – | –
[3], x1 = 0.215 | 0.0399 ± 0.000908 | – | –
[3], x1 = 0.2516 | 0.0483 ± 0.0011 | – | –
[3], x1 = 0.2912 | 0.0574 ± 0.00129 | – | –
[3], x1 = 0.3343 | 0.0661 ± 0.00146 | – | –
[3], x1 = 0.3813 | 0.0761 ± 0.00167 | – | –
[3], x1 = 0.4328 | 0.086 ± 0.00189 | – | –
[3], x1 = 0.4894 | 0.0958 ± 0.0021 | – | –
[3], x1 = 0.5521 | 0.104 ± 0.00227 | – | –
[3], x1 = 0.6217 | 0.11 ± 0.00239 | – | –
[3], x1 = 0.6995 | 0.113 ± 0.00239 | – | –
[3], x1 = 0.7871 | 0.105 ± 0.00229 | – | –
[3], x1 = 0.8864 | 0.0783 ± 0.00172 | – | –

CC(C)CC(C)(C)C [2,2,4-trimethylpentane] + CCO
Conditions | mass density, [1] [kg/m3] | refractive index, [2]
x2 = 0 | 684.1 ± 0.31 | 1.3865 ± 0.00068
x2 = 0.0498 | – | 1.38633 ± 0.00068
x2 = 0.061 | 685.45 ± 0.31 | –
x2 = 0.0992 | – | 1.38632 ± 0.00068
x2 = 0.1201 | 687.2 ± 0.31 | –
x2 = 0.1997 | – | 1.38482 ± 0.00068
x2 = 0.2363 | 691.81 ± 0.3 | –
x2 = 0.2998 | – | 1.38404 ± 0.00068
x2 = 0.3467 | 697.27 ± 0.3 | –
x2 = 0.4005 | – | 1.38109 ± 0.00068
x2 = 0.453 | 703.74 ± 0.3 | –
x2 = 0.499 | – | 1.37746 ± 0.00068
x2 = 0.5525 | 711.14 ± 0.29 | –
x2 = 0.5999 | – | 1.37322 ± 0.00068
x2 = 0.6502 | 720.18 ± 0.28 | –
x2 = 0.7 | – | 1.36851 ± 0.00068
x2 = 0.7431 | 730.88 ± 0.28 | –
x2 = 0.8001 | – | 1.36386 ± 0.00068
x2 = 0.8322 | 744.05 ± 0.27 | –
x2 = 0.8999 | – | 1.36145 ± 0.00068
x2 = 0.9176 | 760.58 ± 0.25 | –
x2 = 0.9508 | – | 1.35789 ± 0.00068
x2 = 0.9599 | 770.78 ± 0.24 | –

CC(C)OC(C)C [diisopropyl ether] + CC(C)CC(C)(C)C
Conditions | excess molar enthalpy [kcal/mol] | mass density [kg/m3] | refractive index
[1], x1 = 0.0614 | – | 685.5 ± 0.31 | –
[1], x1 = 0.1204 | – | 686.92 ± 0.31 | –
[1], x1 = 0.2365 | – | 689.82 ± 0.31 | –
[1], x1 = 0.3486 | – | 692.78 ± 0.3 | –
[1], x1 = 0.4525 | – | 695.6 ± 0.3 | –
[1], x1 = 0.5542 | – | 698.54 ± 0.3 | –
[1], x1 = 0.6497 | – | 701.45 ± 0.3 | –
[1], x1 = 0.7437 | – | 704.5 ± 0.29 | –
[1], x1 = 0.8322 | – | 707.61 ± 0.29 | –
[1], x1 = 0.9187 | – | 710.76 ± 0.29 | –
[1], x1 = 0.9598 | – | 712.33 ± 0.29 | –
[1], x1 = 1 | – | 713.78 ± 0.29 | –
[2], x1 = 0.0614 | – | – | 1.38505 ± 0.00068
[2], x1 = 0.1204 | – | – | 1.38372 ± 0.00068
[2], x1 = 0.2365 | – | – | 1.38115 ± 0.00068
[2], x1 = 0.3486 | – | – | 1.37862 ± 0.00068
[2], x1 = 0.4525 | – | – | 1.37619 ± 0.00068
[2], x1 = 0.5542 | – | – | 1.37383 ± 0.00068
[2], x1 = 0.6497 | – | – | 1.37172 ± 0.00068
[2], x1 = 0.7437 | – | – | 1.36963 ± 0.00068
[2], x1 = 0.8322 | – | – | 1.36774 ± 0.00068
[2], x1 = 0.9187 | – | – | 1.36596 ± 0.00068
[2], x1 = 0.9598 | – | – | 1.36512 ± 0.00068
[2], x1 = 1 | – | – | 1.36425 ± 0.00068
[3], x1 = 0.0577 | 0.00932 ± 0.000311 | – | –
[3], x1 = 0.1144 | 0.0178 ± 0.000454 | – | –
[3], x1 = 0.1702 | 0.0253 ± 0.000621 | – | –
[3], x1 = 0.2252 | 0.0316 ± 0.000741 | – | –
[3], x1 = 0.2793 | 0.0368 ± 0.00086 | – | –
[3], x1 = 0.3326 | 0.041 ± 0.000932 | – | –
[3], x1 = 0.385 | 0.0441 ± 0.001 | – | –
[3], x1 = 0.4367 | 0.0461 ± 0.00105 | – | –
[3], x1 = 0.4875 | 0.0471 ± 0.00108 | – | –
[3], x1 = 0.5376 | 0.0472 ± 0.00108 | – | –
[3], x1 = 0.587 | 0.0462 ± 0.00105 | – | –
[3], x1 = 0.6356 | 0.0443 ± 0.001 | – | –
[3], x1 = 0.6835 | 0.0415 ± 0.000956 | – | –
[3], x1 = 0.7307 | 0.038 ± 0.000884 | – | –
[3], x1 = 0.7772 | 0.0337 ± 0.000789 | – | –
[3], x1 = 0.823 | 0.0284 ± 0.000669 | – | –
[3], x1 = 0.8682 | 0.0223 ± 0.00055 | – | –
[3], x1 = 0.9128 | 0.0156 ± 0.000406 | – | –
[3], x1 = 0.9567 | 0.00795 ± 0.000287 | – | –

CCO [ethanol] + CC(C)CC(C)(C)C
x1 = 1
Conditions | mass density [kg/m3] | refractive index
[1] | 781.99 ± 0.23 | –
[2] | – | 1.35733 ± 0.00068

CC(C)CC(C)(C)C [2,2,4-trimethylpentane] + CC(C)OC(C)C
x2 = 0
Conditions | mass density [kg/m3] | refractive index
[1] | 684.1 ± 0.31 | –
[2] | – | 1.3865 ± 0.00068

CCO [ethanol] + CC(C)OC(C)C
x2 = 0
Conditions | mass density [kg/m3] | refractive index
[1] | 781.99 ± 0.23 | –
[2] | – | 1.35733 ± 0.00068
